Consider one substance from patent US20070060610A1, “Methods and pharmaceutical formulations for increasing bioavailability” (priority 2005, published 2007).

The subject of this test is Caco-2 monolayers. Conditions: FIG. 1A; different pre-incubation times; Rhodamine 123 13 μM; TPGS 1000 33 μM on both sides.

Description: Caco-2 cell culture and handling: Caco-2 cells, clone C2BBe1, were purchased from American Type Culture Collection (ATCC; Manassas, Va.) and used from passage 70-92 with Corning Incorp. Life Sciences (Acton, Mass.) polycarbonate membranes (3460; 12-well, pore size 0.4 μm, 1.13 cm^2). Cells were seeded at a density of ˜60,000 cells/cm^2 and grown at ˜37° C. in a controlled atmosphere of ˜5% CO2 with a relative humidity of ˜85%. The culture medium consisted of DMEM supplemented with 10% FBS, 1% non-essential amino acids, 100 μg/mL streptomycin and 100 U/mL penicillin. Transepithelial electrical resistance (TEER) was measured with a hand-held REMS electrical volt-ohm meter EVOM (World Precision Instruments; Sarasota, Fla.). […]
Using the transport assay, drug transport was assessed in absorptive (apical to basolateral, Ap→Bl) and secretory (Bl→Ap) directions. […]
Cell monolayers were agitated using an orbital shaker (IKA®—Werke GmbH & CO KG; Staufen, Germany) at 100±20 rpm. […] RHO was quantified with a Cytofluor-2 fluorescence plate reader (Perkin Elmer Biosystems; Weiterstadt, Germany) operating at excitation wavelength of 485 nm and emission wavelength of 530 nm to measure RHO.
Apparent Permeability and statistical analysis: flux was determined using receiver compartment RHO steady-state appearance rates (ΔQ/Δt). Papp across Caco-2 monolayers was calculated via: [formula] […]

With “d-α-tocopheryl polyethylene glycol succinate [TPGS 1000]”, the “effect of pre-exposure on amount of compound transported across the cells (apical to basolateral)” value was “effectively increases the amount of compound transported across the cells (apical to basolateral) in a time-dependent fashion”.
